Measurements reported in the Deep4Chem optical property database.
Blank lines part the entries; values can stand above or below the compound they belong to.

Experiment: photoluminescence quantum yield (fraction); solvent given as SMILES

SMILES: CCCCN1C(=O)c2cc(Oc3ccc(C(C)(C)C)cc3)c3c4c(Oc5ccc(C(C)(C)C)cc5)cc5c(=O)[nH]/c(=C\c6ccccn6)c6cc(Oc7ccc(C(C)(C)C)cc7)c(c7c(Oc8ccc(C(C)(C)C)cc8)cc(c2c37)C1=O)c4c56
photoluminescence quantum yield (in C1CCOC1): 0.336
photoluminescence quantum yield (in Cc1ccccc1): 0.408
photoluminescence quantum yield (in ClCCl): 0.421

SMILES: CCCCN(CCCC)c1ccc2c(c1)C#CC#Cc1cc(N(CCCC)CCCC)ccc1C#Cc1cc(c3cc1C#Cc1ccc(C(F)(F)F)cc1C#CC#Cc1cc(C(F)(F)F)ccc1C#C3)C#C2
photoluminescence quantum yield (in ClCCl): 0.15

SMILES: O=c1oc2ccc3ccccc3c2nc1-c1ccc(Cl)cc1
photoluminescence quantum yield (in c1ccccc1): 0.478

SMILES: CCCCCCCCN1c2ccc(C#Cc3ccc(F)cc3)cc2Sc2cc(C=O)ccc21
photoluminescence quantum yield (in C1CCOC1): 0.64
photoluminescence quantum yield (in CC#N): 0.24
photoluminescence quantum yield (in CCCCCC): 0.48
photoluminescence quantum yield (in CO): 0.07
photoluminescence quantum yield (in CS(C)=O): 0.75
photoluminescence quantum yield (in Cc1ccccc1): 0.52
photoluminescence quantum yield (in ClC(Cl)Cl): 0.4

SMILES: COc1ccc(C#Cc2nc3ccccc3nc2-c2csc(OC)c2)cc1
photoluminescence quantum yield (in ClCCl): 0.32

SMILES: c1ccc2c(c1)c1ccccc1n2-c1ccc2cc(-c3ccc(-c4ccc(-c5cc6ccc(-n7c8ccccc8c8ccccc87)cc6o5)cc4)cc3)oc2c1
photoluminescence quantum yield (in Cc1ccccc1): 0.96
photoluminescence quantum yield (in c1ccc2c(c1)c1ccccc1n2-c1ccc(-c2ccc(-n3c4ccccc4c4ccccc43)cc2)cc1): 1

SMILES: Cc1ccccc1-c1nc(-c2ccccc2C)nc(-c2ccc(N3c4ccccc4C4(c5ccccc5-c5ccccc54)c4ccccc43)cc2C)n1
photoluminescence quantum yield (in O=P(c1ccccc1)(c1ccccc1)c1ccccc1Oc1ccccc1P(=O)(c1ccccc1)c1ccccc1): 0.62

SMILES: C/C=C/c1cccc(OC)c1
photoluminescence quantum yield (in CC#N): 0.24
photoluminescence quantum yield (in CCCCCC): 0.31

SMILES: Fc1ccccc1-c1c2cc(Cl)ccc2nc2cc3ccccc3cc12
photoluminescence quantum yield (in ClCCl): 0.46

SMILES: Fc1ccc2sc3nc(-c4ccccc4)sc3c2c1
photoluminescence quantum yield (in CS(C)=O): 0.91

SMILES: CCn1c2ccccc2c2cc3c(cc21)c1ccccc1n3CC
photoluminescence quantum yield (in ClC(Cl)Cl): 0.13

Next, values leading:

photoluminescence quantum yield (in ClC(Cl)Cl): 0.612
SMILES: F[B-]1(F)OC(c2ccc(N3CCCCC3)cc2)=Cc2cccc[n+]21

photoluminescence quantum yield (in CC#N): 0.217
photoluminescence quantum yield (in CO): 0.152
photoluminescence quantum yield (in ClCCl): 0.469
photoluminescence quantum yield (in O): 0.03
SMILES: CCOC(=O)CC[N+]1=c2cc3c(cc2CCC1)=Cc1c(c2ccc(N(C)C)cc2oc1=O)O3

photoluminescence quantum yield (in C1CCCCC1): 0.86
SMILES: CCC(C)(C)c1ccc(-c2ccc3c(c2)C(CCOC)(CCOC)c2cc4c(cc2-3)C(CCOC)(CCOC)c2cc(-c3ccc(C(C)(C)CC)cc3)ccc2-4)cc1

photoluminescence quantum yield (in C1CCCCC1): 0.026
photoluminescence quantum yield (in CC#N): 0.0012
photoluminescence quantum yield (in CCO): 0
SMILES: COc1cc(OC)c2c(c1)C(=O)c1ccccc1-2

photoluminescence quantum yield (in CO): 1
SMILES: COC(=O)COc1ccc(/C=C/C2=[N+]3C(=C(c4ccccc4)c4c(C)cc(C)n4[B-]3(F)F)C(C)=C2)cc1

photoluminescence quantum yield (in ClCCl): 0.35
SMILES: CCOCCOCCOC(=O)/C=C/C1=CC2=C(c3c(C)cc(C)cc3C)c3cccn3[B-](F)(F)[N+]2=C1

photoluminescence quantum yield (in ClC(Cl)Cl): 0.1
SMILES: COc1ccc(-c2oc3cccc4c5c(-c6ccc(OC)c(OC)c6)/c(=N/S(=O)(=O)C(F)(F)F)oc6cccc(c2c34)c65)cc1OC

photoluminescence quantum yield (in CC#N): 0.37
SMILES: N#CC(/N=C/c1c(O)ccc2ccccc12)=C(C#N)/N=C/c1c(O)ccc2ccccc12

photoluminescence quantum yield (in ClC(Cl)Cl): 0.34
SMILES: CCn1c2ccccc2oc2c(C#N)c3oc4ccccc4oc3c(C#N)c21

photoluminescence quantum yield (in C1CCOC1): 0.32
SMILES: COc1ccc(/C=C/C(F)(F)F)c(N)c1

photoluminescence quantum yield (in CC#N): 0.49
photoluminescence quantum yield (in CO): 0.4
photoluminescence quantum yield (in ClCCl): 0.59
SMILES: CCOC(=O)c1ccc(O)c(-c2[nH]c(=O)n3c2-c2ccccc2C3=O)c1

photoluminescence quantum yield (in CC#N): 0.4
photoluminescence quantum yield (in CCCCCC): 0.28
SMILES: Cc1ccc(-n2cccc2)cc1

photoluminescence quantum yield (in ClC(Cl)Cl): 0.89
SMILES: CCCCCCn1c2cc(/C=C/c3cccs3)ccc2c2ccc(/C=C/c3cccs3)cc21

photoluminescence quantum yield (in CO): 0.68
SMILES: O=C(O)CCCc1ccc2ccc3cccc4ccc1c2c34

photoluminescence quantum yield (in ClCCl): 0.03
SMILES: C(#Cc1ncnc2ccccc12)c1ccc(N(c2ccccc2)c2ccccc2)cc1
